What was measured:
Type in all cases: in vivo
[1] = tested on: barnyardgrass (Echinochloa crus-galli); assay: Test G Pre-Emergence Protocol; settings: Echinochloa crus-galli, pre-emergence, 312 h, evaluated after 13 days
Procedure, shortened: (§1)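 Spraying took place one day after sowing, at 15.625, 62.5 or 250 g/ha, using an acetone/water (50:50) spray solution containing 0.5% Tween 20. Plants were kept under glasshouse conditions (24/16 °C, 14 h light, 65% humidity, watered twice daily), and injury was rated 0–100 at day 13.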

[2] = tested on: redroot pigweed (Amaranthus retroflexus); assay: Test G Pre-Emergence Protocol; settings: Amaranthus retroflexus, pre-emergence, 312 h, evaluated after 13 days
Procedure, shortened: as §1

[3] = tested on: ivy-leaved morning glory (Ipomoea hederacea); assay: Test G Pre-Emergence Protocol; settings: Ipomoea, pre-emergence, 312 h, evaluated after 13 days
Procedure, shortened: as §1

[4] = tested on: velvetleaf (Abutilon theophrasti); assay: Test G Pre-Emergence Protocol; settings: Abutilon theophrasti, pre-emergence, 312 h, evaluated after 13 days
Procedure, shortened: as §1

[5] = tested on: corn (Zea mays); assay: Test G Pre-Emergence Protocol; settings: Zea mays, pre-emergence, 312 h, evaluated after 13 days
Procedure, shortened: as §1

[6] = tested on: giant foxtail (Setaria faberi); assay: Test G Pre-Emergence Protocol; settings: Setaria faberi, pre-emergence, 312 h, evaluated after 13 days
Procedure, shortened: as §1

[7] = tested on: barnyardgrass (Echinochloa crus-galli); assay: Test G Post-Emergence Protocol; settings: Echinochloa crus-galli, post-emergence, 312 h
Procedure, shortened: (§2)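 Pot-grown seedlings, 8 days old, raised in a glasshouse at 24/16 °C day/night with 14 h light and 65% humidity, were sprayed post-emergence with test compound in acetone/water (50:50) plus 0.5% Tween 20 at 15.625, 62.5 or 250 g/ha. Damage was scored visually 13 days later on a 0–100 scale (100 = total damage).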

[8] = tested on: redroot pigweed (Amaranthus retroflexus); assay: Test G Post-Emergence Protocol; settings: Amaranthus retroflexus, post-emergence, 312 h
Procedure, shortened: as §2

[9] = tested on: ivy-leaved morning glory (Ipomoea hederacea); assay: Test G Post-Emergence Protocol; settings: Ipomoea, post-emergence, 312 h
Procedure, shortened: as §2

[10] = tested on: velvetleaf (Abutilon theophrasti); assay: Test G Post-Emergence Protocol; settings: Abutilon theophrasti, post-emergence, 312 h
Procedure, shortened: as §2

[11] = tested on: corn (Zea mays); assay: Test G Post-Emergence Protocol; settings: Zea mays, post-emergence, 312 h
Procedure, shortened: as §2

[12] = tested on: giant foxtail (Setaria faberi); assay: Test G Post-Emergence Protocol; settings: Setaria faberi, post-emergence, 312 h
Procedure, shortened: as §2

Cc1ccnc(NC(=O)[C@@H]2C(=O)N(C)C[C@H]2c2ccc(C(F)(F)F)cc2)n1 (racemic) [Compound 1557]
10%: pest or weed control at 250 g/ha ([1]; 250 g ai/ha, read-out: Barnyardgrass damage rating (100=total damage to plant; 0=no damage to plant)) | plant injury at 250 g/ha ([5]; 250 g ai/ha, read-out: Corn damage rating (100=total damage to plant; 0=no damage to plant)) | pest or weed control at 250 g/ha ([10]; 250 g ai/ha, evaluated after 13 days, read-out: damage to plant, Velvetleaf (100=total damage to plant; 0=no damage to plant)) | pest or weed control at 250 g/ha ([12]; 250 g ai/ha, evaluated after 13 days, read-out: damage to plant, Foxtail, Giant (100=total damage to plant; 0=no damage to plant))
0%: pest or weed control at 15.625 g/ha ([1]; 15.625 g ai/ha, read-out: Barnyard grass damage rating (100=total damage to plant; 0=no damage to plant)) | pest or weed control at 62.5 g/ha ([1]; 62.5 g ai/ha, 100=total damage to plant, 0=no damage to plant, read-out: plant damage rating, Barnyardgrass) | pest or weed control at 15.625 g/ha ([2]; 15.625 g ai/ha, read-out: Pigweed, Redroot damage rating (100=total damage to plant; 0=no damage to plant)) | pest or weed control at 62.5 g/ha ([2]; 62.5 g ai/ha, 100=total damage to plant, 0=no damage to plant, read-out: plant damage rating, Pigweed, Redroot) | pest or weed control at 250 g/ha ([2]; 250 g ai/ha, read-out: Pigweed, Redroot damage rating (100=total damage to plant; 0=no damage to plant)) | pest or weed control at 15.625 g/ha ([3]; 15.625 g ai/ha, read-out: Morning-glory, Ivy-leaved damage rating (100=total damage to plant; 0=no damage to plant)) | pest or weed control at 62.5 g/ha ([3]; 62.5 g ai/ha, 100=total damage to plant, 0=no damage to plant, read-out: plant damage rating, Morningglory, Ivy-leaved) | pest or weed control at 250 g/ha ([3]; 250 g ai/ha, read-out: Morningglory, Ivy-leaved damage rating (100=total damage to plant; 0=no damage to plant)) | pest or weed control at 15.625 g/ha ([4]; 15.625 g ai/ha, read-out: Velvetleaf damage rating (100=total damage to plant; 0=no damage to plant)) | pest or weed control at 62.5 g/ha ([4]; 62.5 g ai/ha, 100=total damage to plant, 0=no damage to plant, read-out: plant damage rating, Velvetleaf) | pest or weed control at 250 g/ha ([4]; 250 g ai/ha, read-out: Velvetleaf damage rating (100=total damage to plant; 0=no damage to plant)) | plant injury at 15.625 g/ha ([5]; 15.625 g ai/ha, read-out: Corn damage rating (100=total damage to plant; 0=no damage to plant)) | plant injury at 62.5 g/ha ([5]; 62.5 g ai/ha, 100=total damage to plant, 0=no damage to plant, read-out: plant damage rating, Corn) | pest or weed control at 15.625 g/ha ([6]; 15.625 g ai/ha, read-out: Foxtail, Giant damage rating (100=total damage to plant; 0=no damage to plant)) | pest or weed control at 62.5 g/ha ([6]; 62.5 g ai/ha, 100=total damage to plant, 0=no damage to plant, read-out: plant damage rating, Foxtail, Giant) | pest or weed control at 15.625 g/ha ([7]; 15.625 g ai/ha, evaluated after 13 days (100=total damage to plant; 0=no damage to plant), read-out: Barnyardgrass damage rating) | pest or weed control at 15.625 g/ha ([8]; 15.625 g ai/ha, evaluated after 13 days (100=total damage to plant; 0=no damage to plant), read-out: Pigweed, Redroot damage rating) | pest or weed control at 62.5 g/ha ([8]; 62.5 g ai/ha, evaluated after 13 days, read-out: Pigweed, Redroot damage rating (100=total damage to plant; 0=no damage to plant)) | pest or weed control at 250 g/ha ([8]; 250 g ai/ha, evaluated after 13 days, read-out: damage to plant, Pigweed, Redroot (100=total damage to plant; 0=no damage to plant)) | pest or weed control at 15.625 g/ha ([9]; 15.625 g ai/ha, evaluated after 13 days (100=total damage to plant; 0=no damage to plant), read-out: Morningglory, Ivy-leaved damage rating) | pest or weed control at 62.5 g/ha ([9]; 62.5 g ai/ha, evaluated after 13 days, read-out: Morningglory, Ivy-leaved damage rating (100=total damage to plant; 0=no damage to plant)) | pest or weed control at 250 g/ha ([9]; 250 g ai/ha, evaluated after 13 days, read-out: damage to plant, Morningglory, Ivy-leaved (100=total damage to plant; 0=no damage to plant)) | pest or weed control at 15.625 g/ha ([10]; 15.625 g ai/ha, evaluated after 13 days (100=total damage to plant; 0=no damage to plant), read-out: Velvetleaf damage rating) | pest or weed control at 62.5 g/ha ([10]; 62.5 g ai/ha, evaluated after 13 days, read-out: Velvetleaf damage rating (100=total damage to plant; 0=no damage to plant)) | plant injury at 15.625 g/ha ([11]; 15.625 g ai/ha, evaluated after 13 days (100=total damage to plant; 0=no damage to plant), read-out: Corn damage rating) | plant injury at 62.5 g/ha ([11]; 62.5 g ai/ha, evaluated after 13 days, read-out: Corn damage rating (100=total damage to plant; 0=no damage to plant)) | pest or weed control at 15.625 g/ha ([12]; 15.625 g ai/ha, evaluated after 13 days (100=total damage to plant; 0=no damage to plant), read-out: Foxtail, Giant damage rating) | pest or weed control at 62.5 g/ha ([12]; 62.5 g ai/ha, evaluated after 13 days, read-out: Foxtail, Giant damage rating (100=total damage to plant; 0=no damage to plant))
20%: pest or weed control at 250 g/ha ([6]; 250 g ai/ha, read-out: Foxtail, Giant damage rating (100=total damage to plant; 0=no damage to plant)) | pest or weed control at 62.5 g/ha ([7]; 62.5 g ai/ha, evaluated after 13 days, read-out: Barnyardgrass damage rating (100=total damage to plant; 0=no damage to plant)) | pest or weed control at 250 g/ha ([7]; 250 g ai/ha, evaluated after 13 days, read-out: damage to plant, Barnyardgrass (100=total damage to plant; 0=no damage to plant)) | plant injury at 250 g/ha ([11]; 250 g ai/ha, evaluated after 13 days, read-out: damage to plant, Corn (100=total damage to plant; 0=no damage to plant))
